The values that follow come from US8318769B2, “Substituted sulfonamide compounds” (Gruenethal GmbH, priority 2008, dated 2012).

Structures can show the parent of a compound that is named as a salt.

Assay [1] addresses T1, human bradykinin 1 receptor (B1R) (Homo sapiens, UniProt P46663).
T1 construct: expressed in transfected cells
T1 sequence (P46663 1-353): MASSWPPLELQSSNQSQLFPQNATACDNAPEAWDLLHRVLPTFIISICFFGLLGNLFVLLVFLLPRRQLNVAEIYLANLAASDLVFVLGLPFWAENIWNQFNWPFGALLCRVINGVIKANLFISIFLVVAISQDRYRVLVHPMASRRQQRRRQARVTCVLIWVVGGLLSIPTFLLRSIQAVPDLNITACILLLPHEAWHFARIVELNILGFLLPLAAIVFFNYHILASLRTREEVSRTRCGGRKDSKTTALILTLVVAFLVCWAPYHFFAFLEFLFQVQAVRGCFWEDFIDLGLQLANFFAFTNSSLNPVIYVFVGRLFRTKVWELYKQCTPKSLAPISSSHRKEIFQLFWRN
In words: FLIPR Ca2+ assay, B1R antagonism, human. It counts as cell-based. As to conditions: 10 μM test substance; CHO K1 cells with human B1R gene (hB1R cells); Lys-Des-Arg9-bradykinin at EC80; % inhibition compared with the maximum achievable inhibition; read-out: B1R antagonism, human [10 μM] % inhibition. The method, then: The agonistic or antagonistic action of substances can be quantified on the bradykinin 1 receptor (B1R) of the human and rat species with ectopically expressing cell lines (CHO K1 cells) and with the aid of a Ca^2+-sensitive dyestuff (Fluo-4) in a fluorescent imaging plate reader (FLIPR). The figure in % activation is based on the Ca^2+ signal after addition of Lys-Des-Arg^9-bradykinin (0.5 nM) or Des-Arg^9-bradykinin (100 nM). Antagonists lead to a suppression of the Ca^2+ inflow after addition of the agonist. % inhibition compared with the maximum achievable inhibition is stated.
The agonistic or antagonistic action of substances can be determined on the bradykinin 1 receptor (B1R) of the human and rat species with the following assay. In accordance with this assay, the Ca^2+ inflow through the channel is quantified with the aid of a Ca^2+-sensitive dyestuff (type Fluo-4, Molecular Probes Europe BV, Leiden, Holland) in a fluorescent imaging plate reader (FLIPR, Molecular Devices, Sunnyvale, USA).
Chinese hamster ovary cells (CHO K1 cells) transfected stably with the human B1R gene (hB1R cells) or the B1R gene of the rat (rB1R cells) are used. For functional studies, these cells are plated out on black 96-well plates with a clear base (BD Biosciences, Heidelberg, Germany or Greiner, Frickenhausen, Germany) in a density of 20,000-35,000 cells/well. The cells are left overnight at 37° C. and 5% CO2 in culture medium (hB1R cells: Nutrient Mixture Ham's F12, Gibco Invitrogen GmbH, Karlsruhe, Germany or DMEM, Sigma-Aldrich, Taufkirchen, Germany; rB1R cells: D-MEM/F12, Gibco Invitrogen GmbH, Karlsruhe, Germany) with 10 vol. % FBS (foetal bovine serum, Gibco Invitrogen GmbH, Karlsruhe, Germany or PAN Biotech GmbH, Aidenbach, Germany).
On the following day, the cells are loaded for 60 min at 37° C. with 2.13 μM Fluo-4 (Molecular Probes Europe BV, Leiden, Holland) in HBSS buffer (Hank's buffered saline solution, Gibco Invitrogen GmbH, Karlsruhe, Germany) with 2.5 mM probenecid (Sigma-Aldrich, Taufkirchen, Germany) and 10 mM HEPES (Sigma-Aldrich, Taufkirchen, Germany). The plates are then washed 2× with HBSS buffer, and HBSS buffer which additionally contains 0.1% BSA (bovine serum albumin; Sigma-Aldrich, Taufkirchen, Germany), 5.6 mM glucose and 0.05% gelatine (Merck KGaA, Darmstadt, Germany) is added. After a further incubation of 20 minutes at room temperature, the plates are inserted into the FLIPR for the Ca^2+ measurement.
Alternatively, the plates are washed with buffer A (15 mM HEPES, 80 mM NaCl, 5 mM KCl, 1.2 mM CaCl2, 0.7 mM MgSO4, 2 g/l glucose, 2.5 mM probenecid), buffer A is added and the plates are loaded with 2.5 μM Fluo-4 and 0.025% Pluronic F127 (Sigma-Aldrich, Taufkirchen, Germany). Thereafter, the cells are washed 2× with buffer A and incubated for 30 minutes with buffer A, which additionally contains 0.05% BSA and 0.05% gelatine, at room temperature and thereafter inserted into the FLIPR for the Ca^2+ measurement.
The Ca^2+-dependent fluorescence is measured here before and after addition of substances (λex=488 nm, λem=540 nm). Quantification is by measurement of the highest fluorescence intensity (FC, fluorescence counts) over time.
The FLIPR protocol consists of 2 additions of substance. Test substances (10 μM) are first pipetted on to the cells and the Ca^2+ inflow is compared with the control (hB1R: Lys-Des-Arg^9-bradykinin >=50 nM; rB1R: Des-Arg^9-bradykinin 10 μM). This gives the figure in % activation based on the Ca^2+ signal after addition of Lys-Des-Arg^9-bradykinin (>=50 nM) or Des-Arg^9-bradykinin (10 μM).
After incubation for 10-20 minutes, Lys-Des-Arg^9-bradykinin (hB1R) or Des-Arg^9-bradykinin (rB1R) in the concentration of the EC80 is applied and the inflow of Ca^2+ is likewise determined. Antagonists lead to a suppression of the Ca^2+ inflow. % inhibition compared with the maximum achievable inhibition is calculated. […]

The target of assay [2] is T2, bradykinin 1 receptor (B1R) of the rat (Rattus norvegicus, UniProt P97583).
T2 construct: expressed in transfected cells
T2 sequence (P97583 1-337): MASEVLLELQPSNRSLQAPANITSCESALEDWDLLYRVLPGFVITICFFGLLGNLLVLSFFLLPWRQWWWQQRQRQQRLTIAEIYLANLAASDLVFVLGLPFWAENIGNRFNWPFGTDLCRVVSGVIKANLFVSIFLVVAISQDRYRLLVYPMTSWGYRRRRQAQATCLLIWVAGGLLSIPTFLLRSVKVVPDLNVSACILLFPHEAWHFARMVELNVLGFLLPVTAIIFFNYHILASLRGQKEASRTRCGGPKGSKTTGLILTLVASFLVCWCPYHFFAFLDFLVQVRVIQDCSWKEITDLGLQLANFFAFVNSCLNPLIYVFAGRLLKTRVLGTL
In words: FLIPR Ca2+ assay, B1R antagonism, rat. Format: cell-based. As to conditions: CHO-K1, 10 μM test substance; CHO K1 cells with rat B1R gene (rB1R cells); Des-Arg9-bradykinin at EC80; % inhibition compared with the maximum achievable inhibition; read-out: B1R antagonism, rat [10 μM] % inhibition. The essentials:
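Antagonism is given as % of maximum achievable suppression of agonist-evoked Ca2+ influx, measured by Fluo-4 peak fluorescence in FLIPR. Stable hB1R or rB1R CHO K1 lines received 10 μM compound for 10-20 min before EC80 Lys-Des-Arg9-bradykinin (human) or Des-Arg9-bradykinin (rat).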

Take `COc1cc(C)c(S(=O)(=O)N(CCOCC(=O)N2CCC(OCCN3CCCC3)(c3ccncc3)CC2)c2ccccc2)c(C)c1` [Example 100, 4-methoxy-2,6-dimethyl-N-[2-[2-oxo-2-[4-pyridin-4-yl-4-(2-pyrrolidin-1-yl-ethoxy)-piperidin-1-yl]-ethoxy]-ethyl]-N-phenyl-benzenesulfonic acid amide]: the values for the inhibition at 10 µM in assay [1] and in assay [2] were 100% and 102%, respectively.
With `COc1cc(C)c(S(=O)(=O)N2CCCC[C@H]2COCC(=O)N2CCC(OCCN3CCCC3)(c3cccc(F)c3)CC2)c(C)c1` [Example 51, (S)-1-(4-(3-fluorophenyl)-4-(2-(pyrrolidin-1-yl)ethoxy)piperidin-1-yl)-2-((1-(4-methoxy-2,6-dimethylphenylsulfonyl)piperidin-2-yl)methoxy)ethanone], the results for the inhibition at 10 µM in assay [1] and in assay [2] were 98% and 97%, respectively.
As to `COc1cc(C)c(S(=O)(=O)N2CCCCC2COCC(=O)N2CCC(OCCN3CCN(C)CC3)(c3cccnc3)CC2)c(C)c1` (centres unmarked) [Example 28, 2-((1-(4-methoxy-2,6-dimethylphenylsulfonyl)piperidin-2-yl)methoxy)-1-(4-(2-(4-methylpiperazin-1-yl)ethoxy)-4-(pyridin-3-yl)piperidin-1-yl)ethanone], the inhibition at 10 µM in assay [1] stood at 97%; in assay [2] it was 102%.
For `O=C(COCCN(C1CCc2ccccc21)S(=O)(=O)c1ccc(Cl)cc1Cl)N1CCC(OCCN2CCCC2)(c2cccnc2)CC1` (centres unmarked) [Example 7, 2,4-dichloro-N-(2,3-dihydro-1H-inden-1-yl)-N-(2-(2-oxo-2-(4-(pyridin-3-yl)-4-(2-(pyrrolidin-1-yl)ethoxy)piperidin-1-yl)ethoxy)ethyl)benzenesulfonamide] the same measures were 99% and 94%.
For the compound `COc1cc(C)c(S(=O)(=O)N(C)CCOCC(=O)N2CCC(OCCCN3CCN(C)CC3)(c3cccnc3)CC2)c(C)c1` [Example 34, 4-methoxy-N,2,6-trimethyl-N-(2-(2-(4-(3-(4-methylpiperazin-1-yl)propoxy)-4-(pyridin-3-yl)piperidin-1-yl)-2-oxoethoxy)ethyl)benzenesulfonamide], the inhibition at 10 µM in assay [1] came out at 99%; in assay [2], 100%.
For the compound `O=C(CCCC1CCCCN1S(=O)(=O)c1ccc2ccccc2c1)N1CCC(OCCN2CCCC2)(c2cccnc2)CC1` (centres unmarked) [Example 95, 4-[1-(naphthalen-2-ylsulfonyl)-piperidin-2-yl]-1-[4-pyridin-3-yl-4-(2-pyrrolidin-1-yl-ethoxy)-piperidin-1-yl]-butan-1-one], the inhibition at 10 µM in assay [1] is 95%; in assay [2], 101%.
In the case of `COc1cc(C)c(S(=O)(=O)N(C)CCOCC(=O)N2CCC(OCCN3CCCC3)(c3cccnc3)CC2)c(C)c1` [Example 21, 4-methoxy-N,2,6-trimethyl-N-(2-(2-oxo-2-(4-(pyridin-3-yl)-4-(2-(pyrrolidin-1-yl)ethoxy)piperidin-1-yl)ethoxy)ethyl)benzenesulfonamide], the figures for the inhibition at 10 µM in assay [1] and in assay [2] were 98% and 100%, respectively.
Regarding `COc1cc(C)c(S(=O)(=O)N2CCCCC2COCC(=O)N2CCC(OCCN3CCCC3)(c3cccc(F)c3)CC2)c(C)c1` (centres unmarked) [Example 83, 1-[4-(3-fluorophenyl)-4-(2-pyrrolidin-1-yl-ethoxy)-piperidin-1-yl]-2-[[1-[(4-methoxy-2,6-dimethyl-phenyl)sulfonyl]-piperidin-2-yl]-methoxy]-ethanone], the inhibition at 10 µM in assay [1] amounted to 100%; in assay [2] it was 99%.
Turning to `Cc1cc(S(=O)(=O)N2CCCCC2CCC(=O)N2CCC(OCCCN3CCN(C)CC3)(c3cccnc3)CC2)c(C)cc1Cl` (centres unmarked) [Example 36, 3-(1-(4-chloro-2,5-dimethylphenylsulfonyl)piperidin-2-yl)-1-(4-(3-(4-methylpiperazin-1-yl)propoxy)-4-(pyridin-3-yl)piperidin-1-yl)propan-1-one], the inhibition at 10 µM was determined as 85% in assay [1] and 93% in assay [2].
The corresponding values for `Cc1cccc(Cl)c1S(=O)(=O)N1CCCC[C@H]1COCC(=O)N1CCC(OCCN2CCCC2)(c2cccnc2)CC1` [Example 48, (S)-2-((1-(2-chloro-6-methylphenylsulfonyl)piperidin-2-yl)methoxy)-1-(4-(pyridin-3-yl)-4-(2-(pyrrolidin-1-yl)ethoxy)piperidin-1-yl)ethanone] are 99% and 105%.
The corresponding values for `COc1cc(C)c(S(=O)(=O)N2CCCC[C@H]2COCC(=O)N2CCC(OCCN3CCCC3)(c3cccnc3)CC2)c(C)c1` [Example 46, (S)-2-((1-(4-methoxy-2,6-dimethylphenylsulfonyl)piperidin-2-yl)methoxy)-1-(4-(pyridin-3-yl)-4-(2-(pyrrolidin-1-yl)ethoxy)piperidin-1-yl)ethanone hydrochloride] are 100% and 102%.
With `O=C(COCC1CCCCN1S(=O)(=O)c1ccccc1C(F)(F)F)N1CCC(OCCN2CCCC2)(c2cccnc2)CC1` (centres unmarked) [Example 116, 1-[4-pyridin-3-yl-4-(2-pyrrolidin-1-yl-ethoxy)-piperidin-1-yl]-2-[[1-[[2-(trifluoromethyl)-phenyl]sulfonyl]-piperidin-2-yl]-methoxy]-ethanone], the values for the inhibition at 10 µM in assay [1] and in assay [2] were 100% and 101%, respectively.
Regarding `COc1cc(C)c(S(=O)(=O)N(CCOCC(=O)N2CCC(OCCN3CCCC3)(c3cccnc3)CC2)Cc2cccnc2)c(C)c1` [Example 5, 4-methoxy-2,6-dimethyl-N-(2-(2-oxo-2-(4-(pyridin-3-yl)-4-(2-(pyrrolidin-1-yl)ethoxy)piperidin-1-yl)ethoxy)ethyl)-N-(pyridin-3-ylmethyl)benzenesulfonamide], the inhibition at 10 µM in assay [1] stood at 100%; in assay [2] it was 102%.

One may read the inhibition as the drop in the measured response relative to a control, in per cent.
